Measurements from ChEMBL document CHEMBL1150623, “Two new triterpene esters from the twigs of Brachylaena ramiflora from the Madagascar rainforest” (J Nat Prod, 2002).
Converted amounts (≈) assume the structure as drawn. Numbered stars: 1 amine (or outer) side, 2 acyl side, 3 side chain; on linkers, the order of the positions; unused ones are H or OH. Bridge positions count the residues as written; N and C are the ends. Square brackets hold non-standard residues; d marks the D form. Peptide text beside a SMILES is read from it. I, II: the chains in the order shown. Actinocin(1to9) = Cc1c2oc3c(C)ccc(C(=O)[*:2])c3nc-2c(C(=O)[*:1])c(N)c1=O; NMeV = CN[C@H](C(=O)O)C(C)C; Sar = CNCC(=O)O

System: A2780
Experiment: Cytotoxicity against human A2780 cells
Assay type: functional, cell-based

Compound	IC50
CCCCCCCCCCCCCCCC(=O)O[C@H]1CC[C@]2(C)[C@H]3CC=C4[C@@H]5CC(C)(C)CC[C@]5(C)CC[C@@]4(C)[C@]3(C)CC[C@H]2C1(C)C	13.4 µg/mL (≈ 20.1 µM)
CCCCCCCCCCCCCCCC(=O)O[C@H]1CC[C@]2(C)[C@H]3CC=C4[C@@H]5[C@@H](C)[C@H](C)CC[C@@]5(C)CC[C@@]4(C)[C@]3(C)CC[C@H]2C1(C)C	15.4 µg/mL (≈ 23.2 µM)
Cc1c2oc3c(C)ccc(C(=O)N[C@@H]4C(=O)N[C@H](C(C)C)C(=O)N5CCC[C@H]5C(=O)N(C)CC(=O)N(C)[C@@H](C(C)C)C(=O)O[C@@H]4C)c3nc-2c(C(=O)N[C@@H]2C(=O)N[C@H](C(C)C)C(=O)N3CCC[C@H]3C(=O)N(C)CC(=O)N(C)[C@@H](C(C)C)C(=O)O[C@@H]2C)c(N)c1=O [DACTINOMYCIN] (I: T[dV]P[Sar][NMeV] / II: T[dV]P[Sar][NMeV]; ester I:1-I:C, II:1-II:C; linker I:N-II:N via Actinocin(1to9))	0.002 µg/mL (≈ 0.00159 µM)
C=C(C)[C@H]1CC[C@]2(C)C3CC[C@@H]4[C@@]5(C)CC[C@H](OC(=O)CCCCCCCCCCCCCCC)C(C)(C)[C@@H]5CC[C@@]4(C)[C@]3(C)CC[C@@H]12 (stereo partly drawn) [HOPENYL PALMITATE]	11.6 µg/mL (≈ 17.4 µM)
CCCCCCCCCCCCCCCC(=O)O[C@H]1CC[C@]2(C)[C@H]3CC=C4[C@@H]5CCCC(C)(C)[C@@]5(C)CC[C@@]4(C)[C@]3(C)CC[C@H]2C1(C)C [KAIRATENYL PALMITATE]	10 µg/mL (≈ 15 µM)
C=C(C)[C@@H]1CC[C@]2(C)CC[C@]3(C)[C@H](CC[C@@H]4[C@@]5(C)CC[C@H](OC(C)=O)C(C)(C)[C@@H]5CC[C@]43C)[C@@H]12 [LUPENYL ACETATE]	15 µg/mL
C=C(C)[C@@H]1CC[C@]2(C)CC[C@]3(C)[C@H](CC[C@@H]4[C@@]5(C)CC[C@H](O)C(C)(C)[C@@H]5CC[C@]43C)[C@@H]12 [LUPEOL]	16.2 µg/mL (≈ 38 µM)
CC(=O)O[C@H]1CC[C@]2(C)[C@H]3CC=C4[C@@H]5CC(C)(C)CC[C@]5(C)CC[C@@]4(C)[C@]3(C)CC[C@H]2C1(C)C [beta-AMYRIN ACETATE]	12.1 µg/mL
